Experimental findings from patent US20250090699A1, “FAP TARGETING CYCLIC PEPTIDES AND CONJUGATES THEREOF” (Novartis AG, priority 2023, published 2025) are described below.

Test [1] deals with T1, human FAP (Homo sapiens, UniProt Q12884).
T1 construct: the biotinylated His, Avi tag, human FAP (26-760, FAP-H82Q6); His; Avi tag (biotinylated); purchased AcroBiosystems FAP-H82Q6
T1 sequence (Q12884 26-760): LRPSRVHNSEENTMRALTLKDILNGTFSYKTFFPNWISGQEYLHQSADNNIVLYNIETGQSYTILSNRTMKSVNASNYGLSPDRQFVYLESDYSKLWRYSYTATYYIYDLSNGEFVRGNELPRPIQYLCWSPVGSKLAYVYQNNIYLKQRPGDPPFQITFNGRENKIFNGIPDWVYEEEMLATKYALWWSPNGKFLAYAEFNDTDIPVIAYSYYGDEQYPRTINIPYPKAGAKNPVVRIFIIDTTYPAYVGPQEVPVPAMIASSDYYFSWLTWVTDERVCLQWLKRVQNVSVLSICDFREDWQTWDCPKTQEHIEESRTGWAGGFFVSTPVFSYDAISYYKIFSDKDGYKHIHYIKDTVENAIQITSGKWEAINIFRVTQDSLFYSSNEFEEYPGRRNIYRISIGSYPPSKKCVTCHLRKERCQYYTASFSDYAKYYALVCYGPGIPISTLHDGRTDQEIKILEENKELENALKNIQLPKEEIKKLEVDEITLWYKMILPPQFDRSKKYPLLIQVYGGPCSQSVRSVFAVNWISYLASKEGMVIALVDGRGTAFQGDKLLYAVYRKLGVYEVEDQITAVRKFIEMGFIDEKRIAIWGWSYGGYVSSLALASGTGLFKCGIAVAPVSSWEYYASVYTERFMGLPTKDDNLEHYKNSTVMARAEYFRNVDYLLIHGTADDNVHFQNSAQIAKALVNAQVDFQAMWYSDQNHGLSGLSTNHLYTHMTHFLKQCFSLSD
Description: Surface plasmon resonance (SPR) for peptide affinity, human FAP. It is filed as binding. The note with it: read-out: h. FAP, SPR, KD. The procedure: Peptide affinities (KD) were determined by SPR using a Biacore™ 8K device (Cytiva) towards the following proteins: biotinylated His, Avi tag, human FAP (26-760, FAP-H82Q6), biotinylated His, Avi tag, mouse FAP (26-761, FAP-M82Q5), His tag, human DPP4 (34-766, DP4-H82E3), all purchased from AcroBiosystems and His tag, mouse DPP4 (29-760, 954-SE) from R&D Systems. The FAP proteins and their homologous were diluted to a concentration of 2 μg/mL into acetate buffer pH 5.5, then immobilized onto a CM5 sensorchip (Cytiva, BR-1005-30) to reach a response around 2000 R U. The running buffer HBS-EP+pH 7.6 (20× from Teknova CAT. No: H8022) contained 10 mM HEPES pH 7.6, 150 mM NaCl, 3 mM EDTA, 0.05% Tween20 and 2% DMSO. Experiments were carried out at 25° C. using a flow rate of 30 μL/min. Compounds were tested in single cycle kinetic mode at 8 different concentrations. Curve fitting was performed using the Biacore™ 8K evaluation software. The sensorgrams were fitted by applying a 1:1 binding model to calculate kinetic rate constants and equilibrium dissociation constants (KD).
For this assay, the setup had the same conditions (flow rate, running buffer, peptide dilution) as described above for the CM5 method. The oligo CAP reagent obtained in the CAPture Kit (Ref. 28920234) was 1/5 diluted into running buffer and used with a contact time of 300 s at a flow rate of 2 μL/min. The human and mouse FAP constructs described above were used (from AcroBiosystems or produced in house). The FAP proteins were diluted to a concentration of 2 μg/mL into acetate pH 5.5, 0.05% Tween20 and used with a contact time of 600 s at a flow rate of 10 μL/min. The peptides were tested with an association time of 280 s followed by a dissociation time of 3000 s at a flow rate of 30 μL/min. The regeneration was done using the regeneration solution (8 M guanidine-HCl, 1 M NaOH) as obtained with a contact time of 270 s at a flow rate of 10 μL/min. […] The compounds marked with an asterisk were tested against human and mouse DDP4.

Test [2] deals with T1, human FAP. Description: Enzymatic FAP competition assay (Z-Gly-Pro-AMC fluorescence), human FAP. It is filed as biochemical. Conditions: read-out: h. FAP, Enz., IC50. A digest of the protocol:
(§1)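 IC50 values come from curve fitting of duplicate % inhibition data on AMC fluorescence (ex 380, em 460 nm) after 4 h at 22-24° C with 50 μM Z-Gly-Pro-AMC. Beforehand, peptides up to 1 μM (14 levels) sat 24 h with 0.01 nM human (26-760) or mouse (26-761) tagged FAP in phosphate buffer pH 7.5, NaCl, Tween20, 1% DMSO.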

For test [3], the target named is T2, mouse FAP (Mus musculus, UniProt P97321).
T2 construct: biotinylated His, Avi tag, mouse FAP (26-761, FAP-M82Q5); His; Avi tag (biotinylated); purchased AcroBiosystems FAP-M82Q5
T2 sequence (P97321 26-761): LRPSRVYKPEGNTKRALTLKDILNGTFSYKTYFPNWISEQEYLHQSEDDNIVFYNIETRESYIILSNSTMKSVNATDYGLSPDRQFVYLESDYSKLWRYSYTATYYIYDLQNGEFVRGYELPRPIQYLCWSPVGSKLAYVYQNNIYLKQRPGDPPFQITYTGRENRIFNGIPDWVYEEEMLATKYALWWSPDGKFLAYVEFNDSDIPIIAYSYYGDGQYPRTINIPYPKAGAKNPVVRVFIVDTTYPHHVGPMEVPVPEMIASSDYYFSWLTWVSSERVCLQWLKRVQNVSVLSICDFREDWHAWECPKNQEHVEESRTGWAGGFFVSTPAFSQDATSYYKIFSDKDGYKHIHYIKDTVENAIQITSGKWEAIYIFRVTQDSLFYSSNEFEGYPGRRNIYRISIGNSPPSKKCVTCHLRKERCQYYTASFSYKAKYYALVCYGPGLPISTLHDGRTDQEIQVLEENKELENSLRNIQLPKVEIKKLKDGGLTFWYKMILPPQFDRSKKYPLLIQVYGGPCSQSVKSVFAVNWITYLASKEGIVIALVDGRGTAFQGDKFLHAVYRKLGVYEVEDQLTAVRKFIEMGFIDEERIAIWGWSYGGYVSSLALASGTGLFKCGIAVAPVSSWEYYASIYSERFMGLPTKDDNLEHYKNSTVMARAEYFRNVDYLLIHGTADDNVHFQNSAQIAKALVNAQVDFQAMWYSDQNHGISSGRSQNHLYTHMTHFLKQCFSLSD
Description: Enzymatic FAP competition assay (Z-Gly-Pro-AMC fluorescence), mouse FAP. It is filed as biochemical. The note with it: read-out: m. FAP, Enz., IC50. Summed up:
as §1

In test [4] the target is T2, mouse FAP. Description: Surface plasmon resonance (SPR) for peptide affinity, mouse FAP. It is filed as binding. A digest of the protocol:
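KD values come from a 1:1 kinetic fit of single-cycle SPR data: 8 peptide concentrations, 25 °C, 30 μL/min, HEPES-buffered saline pH 7.6 with 2% DMSO. Targets were His/Avi-tagged human (26-760) or mouse (26-761) FAP, amine-coupled to CM5 or held on a CAPture chip.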

Starred links: 1 amine or outer side, 2 acyl side, 3 side chain; linkers in the order of their positions; H or OH if unused. Positions of bridges follow the written chain, without caps; N, C: chain ends. Non-standard residues stand in square brackets, D forms with d. Residues, ends and D or L forms follow the SMILES beside them. Groups on a side chain read outwards from the residue. Chains are numbered I, II in the order given. *: point of attachment. F(4amPEG2NHDOTA-Lu) = lutetium complex of (S)-2,2',2''-(10-(1-(4-(2-amino-2-carboxyethyl)phenyl)-3,12-dioxo-5,8-dioxa-2,11-diazatridecan-13-yl)-1,4,7,10-tetraazacyclododecane-1,4,7-triyl)triacetic acid (Phe with 4-aminomethyl-PEG2-DOTA-Lu), O=C([O-])CN1CCN(CC(=O)[O-])CCN(CC(=O)NCCOCCOCC(=O)NCc2ccc(C[C@H](N[*:1])C(=O)[*:2])cc2)CCN(CC(=O)[O-])CC1.[Lu+3]; F4(amMeGlyDOTALu) = lutetium complex of (S)-2,2',2''-(10-(2-((2-((4-(2-amino-2-carboxyethyl)benzyl)amino)-2-oxoethyl)(methyl)amino)-2-oxoethyl)-1,4,7,10-tetraazacyclododecane-1,4,7-triyl)triacetic acid (Phe with 4-aminomethyl-N-methyl-Gly-D, CN(CC(=O)NCc1ccc(C[C@H](N[*:1])C(=O)[*:2])cc1)C(=O)CN1CCN(CC(=O)[O-])CCN(CC(=O)[O-])CCN(CC(=O)[O-])CC1.[Lu+3]; X1 = O=C(O)CN1CCN(CC(=O)O)CCN(CC(=O)NC(CC(=O)NCCOCCOCC(=O)[*:1])CC(=O)NCCOCCOCC(=O)[*:2])CCN(CC(=O)O)CC1; COpipzaa = 4-(carboxymethyl)piperazine-1-carbonyl, O=C(O)CN1CCN(C(=O)*)CC1; hS(Pr) = O-propyl-L-homoserine, CCCOCC[C@H](N[*:1])C(=O)[*:2]; Phe(4-CH2NH2) = NCc1ccc(C[C@H](N)C(=O)O)cc1; Piperazinyl(4-CH2COOH) = O=C(O)CN1CCN(*)CC1; NMeF = CN[C@@H](Cc1ccccc1)C(=O)O; Aoc(2) = CCCCCC[C@H](N)C(=O)O; Ahp(2) = CCCCC[C@H](N)C(=O)O; CO = O=C([*:1])[*:2] Where only a bound is given, the exact number is not on record here.

With `CCCCCC[C@@H]1NC(=O)[C@H](Cc2ccc(CNC(=O)COCCOCCNC(=O)CC(CC(=O)NCCOCCOCC(=O)NCc3ccc(C[C@@H]4NC(=O)[C@H](Cc5ccccc5)N(C)C(=O)CNC(=O)CNC(=O)[C@H]5CCCN5C(=O)[C@H](CC(=O)O)NC(=O)[C@H](CCCCNC(=O)N5CCN(CC(=O)O)CC5)NC(=O)CNC(=O)[C@H](Cc5c[nH]c6ccccc56)NC(=O)[C@H](CCCCCC)NC4=O)cc3)NC(=O)CN3CCN(CC(=O)O)CCN(CC(=O)O)CCN(CC(=O)O)CC3)cc2)NC(=O)[C@H](Cc2ccccc2)N(C)C(=O)CNC(=O)CNC(=O)[C@H]2CCCN2C(=O)[C@H](CC(=O)O)NC(=O)[C@H](CCCCNC(=O)N2CCN(CC(=O)O)CC2)NC(=O)CNC(=O)[C@H](Cc2c[nH]c3ccccc23)NC1=O` [Example M1] (I: cyclo(GG[NMeF][Phe(4-CH2NH2)][Aoc(2)]WGK([CO-Piperazinyl(4-CH2COOH)])D[dP]) / II: cyclo(GG[NMeF][Phe(4-CH2NH2)][Aoc(2)]WGK([CO-Piperazinyl(4-CH2COOH)])D[dP]); linker I:4-II:4 via X1), the Kd at human FAP [1] is below 0.03 nM; at mouse FAP [4], below 0.057 nM. For the same compound, the values for the IC50 at human FAP [2] and on mouse FAP [3] were 0.039 nM and 0.134 nM, respectively.
In the same order, the values of “Gly-Gly-NMePhe-F(4amPEG2NHDOTA-Lu)-hS(Pr)-Trp-Gly-K(COpipzaa)-Asp-D-Pro (cyclo(GG[NMeF][F(4amPEG2NHDOTA-Lu)][hS(Pr)]WGK(COpipzaa)D[dP]); also: Lu complex) [Example C2]” are below 0.008 nM, below 0.036 nM, 0.009 nM and 0.023 nM.
In the same order, the values of `CCCCC[C@@H]1NC(=O)[C@H](Cc2ccc(O)cc2)NC(=O)[C@H](Cc2ccccc2)N(C)C(=O)CNC(=O)[C@@H]2CCCN2C(=O)[C@H]2CCCN2C(=O)[C@H](CC(=O)O)NC(=O)[C@H](Cc2ccc(O)cc2)NC(=O)CNC(=O)[C@H](Cc2c[nH]c3ccccc23)NC1=O` [Example A51, 2-((6S,9S,15S,18S,21S,24S,29aS,34aR)-15-((1H-indol-3-yl)methyl)-24-benzyl-9,21-bis(4-hydroxybenzyl)-25-methyl-5,8,11,14,17,20,23,26,29,34-decaoxo-18-pentyldotriacontahydro-1H,5H-dipyrrolo[1,2-a:1′,2′-b1][1,4,7,10,13,16,19,22,25,28]decaazacyclotriacontin-6-yl)acetic acid] (cyclo(G[NMeF]Y[Ahp(2)]WGYD[dP]P)) are 0.163 nM, 0.185 nM, 0.117 nM and 0.4 nM.
In the same order, the values of “Gly-Gly-NMePhe-F4(amMeGlyDOTALu)-Ahp-Trp-Gly-Tyr-Asp-D-Pro (cyclo(GG[NMeF][F4(amMeGlyDOTALu)][Ahp(2)]WGYD[dP]); also: Lu complex) [Example C8]” are 0.004 nM, 0.006 nM, 0.007 nM and 0.012 nM.
